Data taken from PubChem BioAssay (NCI).
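96-well plates; 48 h exposure; 5 concentrations. Endpoints by linear interpolation between flanking doses. Not reached: highest tested concentration assigned. Here, GI50 denotes the concentration required for 50% inhibition of growth. TGI marks complete inhibition of growth.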

How the values were obtained:
Experiment in all cases: NCI-60 cell line screen, 48 h
HCT-15 colon = tested on: HCT-15 colon
HOP-62 NSCLC = tested on: HOP-62 NSCLC
UO-31 renal = tested on: UO-31 renal
MDA-MB-435 = tested on: MDA-MB-435
BT-549 breast = tested on: BT-549 breast
NCI-H23 lung = tested on: NCI-H23 lung
TK-10 renal = tested on: TK-10 renal
T-47D breast = tested on: T-47D breast
HCT-116 colon = tested on: HCT-116 colon
SNB-75 CNS = tested on: SNB-75 CNS
RPMI-8226 leukemia = tested on: RPMI-8226 leukemia
UACC-62 melanoma = tested on: UACC-62 melanoma
HL-60(TB) leukemia = tested on: HL-60(TB) leukemia
MCF7 breast = tested on: MCF7 breast
RXF 393 renal = tested on: RXF 393 renal
NCI/ADR-RES ovarian = tested on: NCI/ADR-RES ovarian
A498 renal = tested on: A498 renal
SNB-19 CNS = tested on: SNB-19 CNS
SR leukemia = tested on: SR leukemia
EKVX NSCLC = tested on: EKVX NSCLC
A549 NSCLC = tested on: A549 NSCLC
HCC-2998 colon = tested on: HCC-2998 colon
786-0 renal = tested on: 786-0 renal
SF-295 CNS = tested on: SF-295 CNS
SF-268 CNS = tested on: SF-268 CNS
OVCAR-4 ovarian = tested on: OVCAR-4 ovarian
M14 melanoma = tested on: M14 melanoma
MDA-MB-231 breast = tested on: MDA-MB-231 breast
COLO 205 colon = tested on: COLO 205 colon
DU-145 prostate = tested on: DU-145 prostate
SN12C renal = tested on: SN12C renal
HS 578T breast = tested on: HS 578T breast
OVCAR-5 ovarian = tested on: OVCAR-5 ovarian
CAKI-1 renal = tested on: CAKI-1 renal
SK-MEL-28 melanoma = tested on: SK-MEL-28 melanoma
U251 CNS = tested on: U251 CNS
CCRF-CEM leukemia = tested on: CCRF-CEM leukemia
LOX IMVI melanoma = tested on: LOX IMVI melanoma
PC-3 prostate = tested on: PC-3 prostate
SK-OV-3 ovarian = tested on: SK-OV-3 ovarian
K-562 leukemia = tested on: K-562 leukemia
SW-620 colon = tested on: SW-620 colon
NCI-H460 lung = tested on: NCI-H460 lung
UACC-257 melanoma = tested on: UACC-257 melanoma
HT29 colon = tested on: HT29 colon
SK-MEL-5 melanoma = tested on: SK-MEL-5 melanoma
IGROV1 ovarian = tested on: IGROV1 ovarian
KM12 colon = tested on: KM12 colon
MOLT-4 leukemia = tested on: MOLT-4 leukemia
MALME-3M melanoma = tested on: MALME-3M melanoma
NCI-H226 lung = tested on: NCI-H226 lung
ACHN renal = tested on: ACHN renal
OVCAR-8 ovarian = tested on: OVCAR-8 ovarian
HOP-92 NSCLC = tested on: HOP-92 NSCLC
NCI-H522 lung = tested on: NCI-H522 lung
SF-539 CNS = tested on: SF-539 CNS

COc1ccc(/C=N\NC(=O)c2ccc3nc(-c4ccc(Br)cc4)[nH]c3c2)cc1 showed a GI50 (HCT-15 colon) of 3.7 µM, a TGI (HCT-15 colon) of 22.9 µM and a GI50 (HOP-62 NSCLC) of 1.87 µM. The TGI (HOP-62 NSCLC) was 4.21 µM, the GI50 (UO-31 renal) was 1.7 µM and the TGI (UO-31 renal) was 5.44 µM. For the same compound, the GI50 (MDA-MB-435) was 2.91 µM, the TGI (MDA-MB-435) was 8.11 µM and the GI50 (BT-549 breast) was 2.64 µM. For the same compound, the TGI (BT-549 breast) was 7.06 µM, the GI50 (NCI-H23 lung) was 2.43 µM and the TGI (NCI-H23 lung) was 6.05 µM. It also gave a GI50 (TK-10 renal) of 2.38 µM, a TGI (TK-10 renal) of 5.06 µM and a GI50 (T-47D breast) of 1.85 µM. The TGI (T-47D breast) was 4.31 µM, the GI50 (HCT-116 colon) was 2.65 µM and the TGI (HCT-116 colon) was 6.07 µM. For the same compound, the GI50 (SNB-75 CNS) was 1.93 µM, the TGI (SNB-75 CNS) was 4.69 µM and the GI50 (RPMI-8226 leukemia) was 2.12 µM. For the same compound, the TGI (RPMI-8226 leukemia) was 8.38 µM, the GI50 (UACC-62 melanoma) was 2.51 µM and the TGI (UACC-62 melanoma) was 7.2 µM. For the same compound, the GI50 (HL-60(TB) leukemia) was 36.6 µM, the TGI (HL-60(TB) leukemia) was over 100 µM and the GI50 (MCF7 breast) was 1.92 µM. The TGI (MCF7 breast) was 5.81 µM, the GI50 (RXF 393 renal) was 1.62 µM and the TGI (RXF 393 renal) was 3.49 µM. The GI50 (NCI/ADR-RES ovarian) was 17.8 µM, the TGI (NCI/ADR-RES ovarian) was over 100 µM and the GI50 (A498 renal) was 2.26 µM. It also gave a TGI (A498 renal) of 5.25 µM, a GI50 (SNB-19 CNS) of 2.81 µM and a TGI (SNB-19 CNS) of 7.39 µM. For the same compound, the GI50 (SR leukemia) was 2.1 µM, the TGI (SR leukemia) was 6.28 µM and the GI50 (EKVX NSCLC) was 2.22 µM. For the same compound, the TGI (EKVX NSCLC) was 5.27 µM, the GI50 (A549 NSCLC) was 2.42 µM and the TGI (A549 NSCLC) was 6.03 µM. It also gave a GI50 (HCC-2998 colon) of 3.06 µM, a TGI (HCC-2998 colon) of 9.13 µM and a GI50 (786-0 renal) of 2.05 µM. For the same compound, the TGI (786-0 renal) was 4.2 µM, the GI50 (SF-295 CNS) was 1.99 µM and the TGI (SF-295 CNS) was 4.27 µM. The GI50 (SF-268 CNS) was 2.31 µM, the TGI (SF-268 CNS) was 5.93 µM and the GI50 (OVCAR-4 ovarian) was 2.14 µM. For the same compound, the TGI (OVCAR-4 ovarian) was 5.16 µM, the GI50 (M14 melanoma) was 2.63 µM and the TGI (M14 melanoma) was 7.47 µM. The GI50 (MDA-MB-231 breast) was 2.43 µM, the TGI (MDA-MB-231 breast) was 5.93 µM and the GI50 (COLO 205 colon) was 1.94 µM. The TGI (COLO 205 colon) was 5.36 µM, the GI50 (DU-145 prostate) was 3.07 µM and the TGI (DU-145 prostate) was 9.39 µM. It also gave a GI50 (SN12C renal) of 2.4 µM, a TGI (SN12C renal) of 5.94 µM and a GI50 (HS 578T breast) of 2.34 µM. The TGI (HS 578T breast) was 5.47 µM, the GI50 (OVCAR-5 ovarian) was 2.68 µM and the TGI (OVCAR-5 ovarian) was 7.27 µM. It also gave a GI50 (CAKI-1 renal) of 2.31 µM, a TGI (CAKI-1 renal) of 6.67 µM and a GI50 (SK-MEL-28 melanoma) of 1.98 µM. For the same compound, the TGI (SK-MEL-28 melanoma) was 4.1 µM, the GI50 (U251 CNS) was 1.94 µM and the TGI (U251 CNS) was 3.55 µM. It also gave a GI50 (CCRF-CEM leukemia) of 6.91 µM, a TGI (CCRF-CEM leukemia) of over 100 µM and a GI50 (LOX IMVI melanoma) of 1.93 µM. For the same compound, the TGI (LOX IMVI melanoma) was 4.17 µM, the GI50 (PC-3 prostate) was 1.79 µM and the TGI (PC-3 prostate) was 3.72 µM. For the same compound, the GI50 (SK-OV-3 ovarian) was 2.37 µM, the TGI (SK-OV-3 ovarian) was 15.5 µM and the GI50 (K-562 leukemia) was 2.89 µM. It also gave a TGI (K-562 leukemia) of 10.4 µM, a GI50 (SW-620 colon) of 2.17 µM and a TGI (SW-620 colon) of 4.64 µM. The GI50 (NCI-H460 lung) was 1.74 µM, the TGI (NCI-H460 lung) was 3.37 µM and the GI50 (UACC-257 melanoma) was 2.14 µM. It also gave a TGI (UACC-257 melanoma) of 4.78 µM, a GI50 (HT29 colon) of 1.7 µM and a TGI (HT29 colon) of 3.3 µM. The GI50 (SK-MEL-5 melanoma) was 2.03 µM, the TGI (SK-MEL-5 melanoma) was 4.38 µM and the GI50 (IGROV1 ovarian) was 2.22 µM. It also gave a TGI (IGROV1 ovarian) of 7.24 µM, a GI50 (KM12 colon) of 3.19 µM and a TGI (KM12 colon) of 12.8 µM. The GI50 (MOLT-4 leukemia) was 4.3 µM, the TGI (MOLT-4 leukemia) was over 100 µM and the GI50 (MALME-3M melanoma) was 1.76 µM. For the same compound, the TGI (MALME-3M melanoma) was 3.79 µM, the GI50 (NCI-H226 lung) was 2.65 µM and the TGI (NCI-H226 lung) was 16.8 µM. It also gave a GI50 (ACHN renal) of 2.27 µM, a TGI (ACHN renal) of 6.22 µM and a GI50 (OVCAR-8 ovarian) of 2.2 µM. For the same compound, the TGI (OVCAR-8 ovarian) was 5.16 µM, the GI50 (HOP-92 NSCLC) was 1.9 µM and the TGI (HOP-92 NSCLC) was 4.65 µM. The GI50 (NCI-H522 lung) was 2.59 µM, the TGI (NCI-H522 lung) was 11.2 µM and the GI50 (SF-539 CNS) was 1.76 µM. It also gave a TGI (SF-539 CNS) of 3.47 µM.
